Test system: human chronic myelocytic leukemia-derived K562 cells
Assay: Cell growth inhibition test with K562 cells (WST-1)
Format: cell-based
Conditions: 72 hours, read-out: 50% growth inhibition concentration (GI50)
Description: In a 96-well plate (Nunc), human chronic myelocytic leukemia-derived K562 cells were sown in an amount of 1500 cells/well, and pre-incubated in 10% FCS-containing Rosewell Park Memorial Institute's Medium (RPMI) 1640 (Nissui) (incubation medium) in a 5% carbon dioxide incubator at 37° C. for 5 hours. Next, a DMSO solution of a test compound controlled at 10 mmol/L was stepwise diluted with the incubation medium, and added to each well in a total amount of 100 μL/well, and further incubated in the 5% carbon dioxide incubator at 37° C. for 72 hours. After the incubation, WST-1-labeled mixture (Rosh Diagnostic) diluted 2-fold with the incubation medium was added thereto in an amount of 20 μL/well, and incubated in the 5% carbon dioxide incubator at 37° C. for 2 hours. Using a microplate spectrophotometer (Biorad's Model 550), the absorbance at 450 nm and 655 nm of each well was measured. The cell growth inhibition activity of the test compound was indicated by the 50% growth inhibition concentration (GI50) thereof, like in Test Example 2.

| GI50 [µM] | Structure (SMILES) |
| --- | --- |
| ≤ 50 | CCNC(=O)Nc1cccc(-c2c(O)cc(O)c(CC)c2CCOCC(O)CO)c1 (stereo not drawn) [Compound 206, 5-[2-(2,3-Dihydroxypropoxy)ethyl]-6-ethyl-4-[3-(3-ethylureido)phenyl]benzene-1,3-diol] |
| ≤ 50 | CCc1c(O)cc(O)c(-c2cccc(NC(=O)C(C)(CO)CO)c2)c1CCOCC(O)CO (stereo not drawn) [Compound 207, 5-[2-(2,3-Dihydroxypropoxy)ethyl]-6-ethyl-4-{3-[2-hydroxy-1-(hydroxymethyl)-1-methylethylcarbonylamino]phenyl}benzene-1,3-diol] |
| ≤ 50 | CCc1c(O)cc(O)c(-c2ccccc2)c1Cc1ocnc1CO [Compound 208, 6-Ethyl-5-{[4-(hydroxymethyl)-1,3-oxazol-5-yl]methyl}-4-phenylbenzene-1,3-diol] |
| ≤ 50 | CCc1c(O)cc(O)c(-c2ccccc2)c1CC1OCC(CO)O1 (stereo not drawn) [Compound 211, 6-Ethyl-5-[(4-hydroxymethyl-1,3-dioxolan-2-yl)methyl]-4-phenylbenzene-1,3-diol] |
| ≤ 50 | CCc1c(O)cc(O)c(-c2ccccc2)c1CCC(N)=O [Compound 212, 3-(2-Ethyl-3,5-dihydroxy-6-phenylphenyl)propanamide] |
| ≤ 50 | CCc1c(O)cc(O)c(-c2ccccc2)c1CCC(C(=O)OC)C(=O)OC [Compound 213, Methyl 4-(2-ethyl-3,5-dihydroxy-6-phenylphenyl)-2-(methoxycarbonyl)butanoate] |
| ≤ 50 | CCc1c(O)cc(O)c(-c2ccccc2)c1C=CC(CO)CO [Compound 214, 6-ethyl-5-[4-hydroxy-3-(hydroxymethyl)but-1-en-1-yl]-4-phenylbenzene-1,3-diol] |
| ≤ 50 | CCc1c(O)cc(O)c(-c2ccccc2)c1CCC(CO)CO [Compound 215, 6-Ethyl-5-[4-hydroxy-3-(hydroxymethyl)butyl]-4-phenylbenzene-1,3-diol] |
| ≤ 50 | CCc1c(O)cc(O)c(-c2ccccc2)c1CCCC(CO)CO [Compound 217, 6-Ethyl-5-[5-hydroxy-4-(hydroxymethyl)pentyl]-4-phenylbenzene-1,3-diol] |
| ≤ 50 | CCc1c(O)cc(O)c(-c2cccc(O)c2)c1CCOCC1CO1 (stereo not drawn) [Compound 219, 6-Ethyl-4-(3-hydroxyphenyl)-5-[2-(oxiran-2-ylmethoxy)ethyl]benzene-1,3-diol] |
| ≤ 50 | CCc1c(O)cc(O)c(-c2ccccc2)c1CCC(=O)NCCO [Compound 220, 3-(2-Ethyl-3,5-dihydroxy-6-phenylphenyl)-N-(2-hydroxyethyl)propanamide] |
| ≤ 50 | CCc1c(O)cc(O)c(-c2ccccc2)c1CCC(=O)NCCNC(C)=O [Compound 221, N-[2-(acetylamino)ethyl]-3-(2-ethyl-3,5-dihydroxy-6-phenylphenyl)propanamide] |
| ≤ 50 | CCc1c(O)cc(O)c(-c2ccccc2)c1CCc1ocnc1C(N)=O [Compound 222, 5-[2-(2-Ethyl-3,5-dihydroxy-6-phenylphenyl)ethyl]-1,3-oxazole-4-carboxamide] |
| ≤ 50 | CCc1c(O)cc(O)c(-c2ccccc2)c1CCc1ocnc1C(=O)NCCO [Compound 223, 5-[2-(2-Ethyl-3,5-dihydroxy-6-phenylphenyl)ethyl]-N-(2-hydroxyethyl)-1,3-oxazole-4-carboxamide] |
| ≤ 50 | CCc1c(O)cc(O)c(-c2ccccc2)c1CCc1ocnc1C(=O)N(CCO)CCO [Compound 224, 5-[2-(2-ethyl-3,5-dihydroxy-6-phenylphenyl)ethyl]-N,N-bis(2-hydroxyethyl)-1,3-oxazole-4-carboxamide] |
| ≤ 50 | CCc1c(O)cc(O)c(-c2ccccc2)c1CCc1ocnc1C(=O)NC(CO)CO [Compound 225, 5-[2-(2-ethyl-3,5-dihydroxy-6-phenylphenyl)ethyl]-N-[2-hydroxy-1-(hydroxymethyl)ethyl]-1,3-oxazole-4-carboxamide] |
| ≤ 50 | CCc1c(O)cc(O)c(-c2ccccc2)c1CCc1ocnc1C(=O)NCC(O)CO (stereo not drawn) [Compound 226, N-(2,3-dihydroxypropyl)-5-[2-(2-ethyl-3,5-dihydroxy-6-phenylphenyl)ethyl]-1,3-oxazole-4-carboxamide] |
| ≤ 50 | CCc1c(O)cc(O)c(-c2cccc(C)c2)c1CC1O[C@H](CO)[C@@H](CO)O1 [Compound 228, 5-{[(4R,5R)-4,5-bis(hydroxymethyl)-1,3-dioxolan-2-yl]methyl}-6-ethyl-4-(3-methylphenyl)benzene-1,3-diol] |

| GI50 [µM] | Structure (SMILES) |
| --- | --- |
| ≤ 50 | OC[C@H]1OC(Cc2cc(O)cc(O)c2-c2ccccc2)O[C@@H]1CO [Compound 230, 5-{[(4R,5R)-4,5-bis(hydroxymethyl)-1,3-dioxolan-2-yl]methyl}-4-phenylbenzene-1,3-diol] |
| ≤ 50 | OC[C@H]1OC(Cc2c(Br)c(O)cc(O)c2-c2ccccc2)O[C@@H]1CO [Compound 232, 5-{[(4R,5R)-4,5-bis(hydroxymethyl)-1,3-dioxolan-2-yl]methyl}-6-bromo-4-phenylbenzene-1,3-diol] |
| ≤ 50 | CCc1c(O)cc(O)c(-c2cccc(OC)c2)c1CC1O[C@@H](CO)[C@H](CO)O1 [Compound 233, 5-{[(4S,5S)-4,5-Bis(hydroxymethyl)-1,3-dioxolan-2-yl]methyl}-6-ethyl-4-(3-methoxyphenyl)benzene-1,3-diol] |
| ≤ 50 | CC(=O)c1c(O)cc(O)c(-c2ccccc2)c1CC1O[C@H](CO)[C@@H](CO)O1 [Compound 234, 1-(6-{[(4R,5R)-4,5-bis(hydroxymethyl)-1,3-dioxolan-2-yl]methyl}-2,4-dihydroxy-5-phenylphenyl)ethanone] |
| ≤ 50 | COC(=O)Cc1cc(O)cc(O)c1-c1ccc(CCC(C)=O)o1 [Compound 261, Methyl 3,5-dihydroxy-2-[5-(3-oxobutyl)furan-2-yl]phenylacetate] |
| ≤ 50 | OC[C@H]1OC(Cc2c(Cl)c(O)cc(O)c2-c2ccccc2)O[C@@H]1CO [Compound 280, 5-{[(4R,5R)-4,5-bis(hydroxymethyl)-1,3-dioxolan-2-yl]methyl}-6-chloro-4-phenylbenzene-1,3-diol] |
| ≤ 50 | CCc1c(O)cc(O)c(-c2cccc(O)c2)c1CC1O[C@@H](CO)[C@H](CO)O1 [Compound 281, 5-{[(4S,5S)-4,5-bis(hydroxymethyl)-1,3-dioxolan-2-yl]methyl}-6-ethyl-4-(3-hydroxyphenyl)benzene-1,3-diol] |
| ≤ 50 | CCc1c(O)cc(O)c(-c2cccc(F)c2)c1CC1O[C@@H](CO)[C@H](CO)O1 [Compound 282, 5-{[(4S,5S)-4,5-bis(hydroxymethyl)-1,3-dioxolan-2-yl]methyl}-6-ethyl-4-(3-fluorophenyl)benzene-1,3-diol] |
| ≤ 50 | CCc1c(O)cc(O)c(-c2cc(C)cc(C)c2)c1CC1O[C@@H](CO)[C@H](CO)O1 [Compound 283, 5-{[(4S,5S)-4,5-bis(hydroxymethyl)-1,3-dioxolan-2-yl]methyl}-4-(3,5-dimethylphenyl)-6-ethylbenzene-1,3-diol] |
| ≤ 50 | CCc1c(O)cc(O)c(-c2cccc(NC(C)=O)c2)c1CC1O[C@@H](CO)[C@H](CO)O1 [Compound 284, 4-[3-(acetylamino)phenyl]-5-{[(4S,5S)-4,5-bis(hydroxymethyl)-1,3-dioxolan-2-yl]methyl}-6-ethylbenzene-1,3-diol] |
| ≤ 50 | OC[C@@H]1OC(Cc2c(Cl)c(O)cc(O)c2-c2ccccc2)O[C@H]1CO [Compound 285, 5-{[(4S,5S)-4,5-bis(hydroxymethyl)-1,3-dioxolan-2-yl]methyl}-6-chloro-4-phenylbenzene-1,3-diol] |
| ≤ 50 | CCc1c(O)cc(O)c(-c2cccc(OC)c2)c1CC1O[C@H](CO)[C@@H](CO)O1 [Compound 286, 5-{[(4R,5R)-4,5-bis(hydroxymethyl)-1,3-dioxolan-2-yl]methyl}-6-ethyl-4-(3-methoxyphenyl)benzene-1,3-diol] |
| ≤ 50 | CC(=O)c1c(O)cc(O)c(-c2ccccc2)c1CC1O[C@@H](CO)[C@H](CO)O1 [Compound 287, 6-Acetyl-5-{[(4S,5S)-4,5-bis(hydroxymethyl)-1,3-dioxolan-2-yl]methyl}-4-phenylbenzene-1,3-diol] |
| ≤ 50 | CCc1c(O)cc(O)c(-c2cccc(C(N)=O)c2)c1CC1O[C@@H](CO)[C@H](CO)O1 [Compound 288, 5-{[(4S,5S)-4,5-Bis(hydroxymethyl)-1,3-dioxolan-2-yl]methyl}-6-ethyl-4-(3-carbamoylphenyl)benzene-1,3-diol] |
| ≤ 50 | CCc1c(O)cc(O)c(-c2cccc(C(=O)NC)c2)c1CC1O[C@@H](CO)[C@H](CO)O1 [Compound 289, 5-{[(4S,5S)-4,5-Bis(hydroxymethyl)-1,3-dioxolan-2-yl]methyl}-6-ethyl-4-[3-(methylcarbamoyl)phenyl]benzene-1,3-diol] |
| ≤ 50 | CCc1c(O)cc(O)c(-c2cccc(C(=O)N(C)C)c2)c1CC1O[C@@H](CO)[C@H](CO)O1 [Compound 290, 5-{[(4S,5S)-4,5-Bis(hydroxymethyl)-1,3-dioxolan-2-yl]methyl}-4-[3-(dimethylcarbamoyl)phenyl]-6-ethylbenzene-1,3-diol] |
| ≤ 50 | CCc1c(O)cc(O)c(-c2ccc(F)c(C)c2)c1CC1O[C@H](CO)[C@@H](CO)O1 [Compound 291, 5-{[(4R,5R)-4,5-bis(hydroxymethyl)-1,3-dioxolan-2-yl]methyl}-6-ethyl-4-(4-fluoro-3-methylphenyl)benzene-1,3-diol] |
| ≤ 50 | CCc1c(O)cc(O)c(-c2cccc(C(=O)N(C)C)c2)c1CC1O[C@H](CO)[C@@H](CO)O1 [Compound 292, 5-{[(4R,5R)-4,5-bis(hydroxymethyl)-1,3-dioxolan-2-yl]methyl}-4-[3-(dimethylcarbamoyl)phenyl]-6-ethylbenzene-1,3-diol] |

— US7538241B2, “Hsp90 family protein inhibitors” (Kyowa Hakko Kogyo Co., Ltd., priority 2003, dated 2009)
